Data reported in US8735436B2, “Polyunsaturated fatty acids for the treatment of diseases related to cardiovascular, metabolic and inflammatory disease areas” (Pronova Biopharma Norge AS, priority 2009, dated 2014).

What was measured:
Assay in all cases: PPAR activation in vitro, mammalian-one-hybrid (M1H) GAL4-PPAR-LBD luciferase reporter assay
Assay type in all cases: cell-based
PPARδ = molecular target: T1, PPARδ (Homo sapiens, UniProt Q03181); details: for PPARδ Efficacy: HEK293 cells, efficacy of positive control (GW501516) set to 100%; for PPARδ EC50: transiently transfected HEK293 cells, compound incubation 16-20 h, six concentrations in duplicate
T1 construct: expressed in transfected cells; host or cells: HEK293
T1 sequence (Q03181 211-439 limits assumed): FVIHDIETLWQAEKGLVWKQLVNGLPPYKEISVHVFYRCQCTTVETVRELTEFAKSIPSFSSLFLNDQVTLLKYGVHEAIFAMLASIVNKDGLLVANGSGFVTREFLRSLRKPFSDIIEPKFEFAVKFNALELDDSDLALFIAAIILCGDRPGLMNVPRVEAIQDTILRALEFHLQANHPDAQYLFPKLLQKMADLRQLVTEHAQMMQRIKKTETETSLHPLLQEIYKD
Description: (§1) The assays were carried out in vitro using mammalian-one-hybrid assays (M1H) comprising GAL4-DNA binding domain-PPAR-LBD fusion constructs in conjunction with 5×GAL4-sites driven Photinus pyralis luciferase reporter constructs in transiently transfected HEK293 cells.
(§2) The cells were transfected 4-6 h and grown overnight before compounds were added. Compound incubation was 16-20 h.
(§3) Renilla reniformis luciferase, driven by a constitutive promoter, was included as internal control to improve experimental accuracy.
(§4) The compounds (A-C) and a positive control were tested at six different concentrations in duplicate. The positive controls were GW7647 (PPARα), GW501516 (PPARδ) and rosiglitazone (PPARγ). The efficacy of the controls were set to 100%.

PPARα = molecular target: T2, PPARα (Homo sapiens, UniProt Q07869); details: for PPARα Efficacy: HEK293 cells, efficacy of positive control (GW7647) set to 100%; for EC50: transiently transfected HEK293 cells, compound incubation 16-20 h, six concentrations in duplicate
T2 construct: expressed in transfected cells; host or cells: HEK293
T2 sequence (Q07869 239-466 limits assumed): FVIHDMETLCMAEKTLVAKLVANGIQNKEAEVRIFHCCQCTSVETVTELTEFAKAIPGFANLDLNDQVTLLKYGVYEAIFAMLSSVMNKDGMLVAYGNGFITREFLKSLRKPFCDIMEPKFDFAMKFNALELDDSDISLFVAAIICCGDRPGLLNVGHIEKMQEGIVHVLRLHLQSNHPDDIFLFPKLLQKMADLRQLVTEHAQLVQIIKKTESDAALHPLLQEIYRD
Description: as §1, §2, §3, §4

PPARγ = molecular target: T3, PPARγ (Homo sapiens, UniProt P37231); details: for PPARγ Efficacy: HEK293 cells, efficacy of positive control (rosiglitazone) set to 100%; for EC50: transiently transfected HEK293 cells, compound incubation 16-20 h, six concentrations in duplicate
T3 construct: expressed in transfected cells; host or cells: HEK293
T3 sequence (P37231 238-503 limits assumed): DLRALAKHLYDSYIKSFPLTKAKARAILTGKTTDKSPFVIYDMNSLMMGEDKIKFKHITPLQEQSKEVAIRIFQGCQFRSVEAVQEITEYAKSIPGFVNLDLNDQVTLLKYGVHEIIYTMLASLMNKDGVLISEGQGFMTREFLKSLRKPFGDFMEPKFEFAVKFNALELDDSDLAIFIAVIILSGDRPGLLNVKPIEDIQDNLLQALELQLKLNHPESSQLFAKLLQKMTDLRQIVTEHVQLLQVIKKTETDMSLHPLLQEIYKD
Description: as §1, §2, §3, §4

SMILES	PPARδ Efficacy (PPARδ)	PPARδ EC50 (PPARδ)	PPARα Efficacy (PPARα) [%]	EC50 (PPARα) [nM]	PPARγ Efficacy (PPARγ) [%]	EC50 (PPARγ) [nM]
CC/C=C\C/C=C\C/C=C\C/C=C\C/C=C\CCCCOC(CC)C(=O)O (stereo not drawn) [A]	inactive	inactive	82	307	22	806
CC/C=C\C/C=C\C/C=C\C/C=C\C/C=C\CCCCO[C@@H](CC)C(=O)O [B]	inactive	inactive	86	405	27	644
CC/C=C\C/C=C\C/C=C\C/C=C\C/C=C\CCCCO[C@H](CC)C(=O)O [C]	inactive	inactive	54	167	25	515
